# Reference: PubChem BioAssay AID1259411 (Chemical Carcinogenesis Research Information System (CCRIS), 2018)
# The source made the active and inactive calls. No rule for the calls is given here.
# System: rodent carcinogenicity bioassays, tumor incidence
# Assay: CCRIS carcinogenicity studies
# Outline: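 Archive of carcinogenicity, mutagenicity, tumor promotion and tumor inhibition results drawn from journals, NCI reports and other sources, expert-reviewed; covers 1985-2011 and is no longer updated.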
structure (smiles),measurement,setting,value
Nc1ccc(Cc2ccc(N)cc2)cc1,carcinogen call,"Species: MOUSE, Strain/Sex: B6C3F1/FEMALE, Route: ORAL, Dose: 0, 0.015, 0.03% IN DIET FOR 103 WK (STUDY DURATION: 104 WK), Dose: 0, 0.015, 0.03% IN DIET FOR 103 WK (STUDY DURATION: 104 WK), Tumor Site: Type of Lesion: THYROID GLAND: FOLLICULAR ADENOMA, LIVER: HEPATOCELLULAR ADENOMA, LIVER: HEPATOCELLULAR CARCINOMA, Tumor Site: Type of Lesion: THYROID GLAND: FOLLICULAR ADENOMA, LIVER: HEPATOCELLULAR ADENOMA, LIVER: HEPATOCELLULAR CARCINOMA",active; positive
same,carcinogen call,"Species: MOUSE, Strain/Sex: B6C3F1/FEMALE, Route: ORAL, Dose: 0, 150, 300 PPM IN DRINKING WATER, Dose: 0, 150, 300 PPM IN DRINKING WATER, Tumor Site: Type of Lesion: THYROID GLAND: FOLLICULAR CELL ADENOMA, CARCINOMA, LIVER: HEPATOCELLULAR ADENOMA, CARCINOMA, LYMPHATIC SYSTEM: MALIGNANT, Tumor Site: Type of Lesion: THYROID GLAND: FOLLICULAR CELL ADENOMA, CARCINOMA, LIVER: HEPATOCELLULAR ADENOMA, CARCINOMA, LYMPHATIC SYSTEM: MALIGNANT",active; positive
same,carcinogen call,"Species: MOUSE, Strain/Sex: B6C3F1/MALE, Route: ORAL, Dose: 0, 0.015, 0.03% IN DIET FOR 103 WK (STUDY DURATION: 104 WK), Dose: 0, 0.015, 0.03% IN DIET FOR 103 WK (STUDY DURATION: 104 WK), Tumor Site: Type of Lesion: THYROID GLAND: FOLLICULAR ADENOMA, LIVER: HEPATOCELLULAR CARCINOMA",active; positive
same,carcinogen call,"Species: MOUSE, Strain/Sex: B6C3F1/MALE, Route: ORAL, Dose: 0, 150, 300 PPM IN DRINKING WATER, Dose: 0, 150, 300 PPM IN DRINKING WATER, Tumor Site: Type of Lesion: THYROID GLAND: FOLLICULAR CELL ADENOMA, ADRENAL GLAND: PHEOCHROMOCYTOMA, LIVER: HEPATOCELLULAR ADENOMA, CARCINOMA, Tumor Site: Type of Lesion: THYROID GLAND: FOLLICULAR CELL ADENOMA, ADRENAL GLAND: PHEOCHROMOCYTOMA, LIVER: HEPATOCELLULAR ADENOMA, CARCINOMA",active; positive
same,carcinogen call,"Species: RAT, Strain/Sex: F344/FEMALE, Route: ORAL, Dose: 0, 0.015, 0.03% IN DIET FOR 103 WK (STUDY DURATION: 104 WK), Dose: 0, 0.015, 0.03% IN DIET FOR 103 WK (STUDY DURATION: 104 WK), Tumor Site: Type of Lesion: THYROID GLAND: FOLLICULAR ADENOMA",active; positive
same,carcinogen call,"Species: RAT, Strain/Sex: F344/FEMALE, Route: ORAL, Dose: 0, 150, 300 PPM IN DRINKING WATER, Dose: 0, 150, 300 PPM IN DRINKING WATER, Tumor Site: Type of Lesion: THYROID GLAND: FOLLICULAR CELL ADENOMA, CARCINOMA, C CELL ADENOMA, CARCINOMA",active; positive
same,carcinogen call,"Species: RAT, Strain/Sex: F344/MALE, Route: ORAL, Dose: 0, 0.15, 0.03% IN DIET FOR 103 WK (STUDY DURATION: 104 WK), Dose: 0, 0.15, 0.03% IN DIET FOR 103 WK (STUDY DURATION: 104 WK), Tumor Site: Type of Lesion: THYROID GLAND: FOLLICULAR CARCINOMA, LIVER: NEOPLASTIC NODULE",active; positive
same,carcinogen call,"Species: RAT, Strain/Sex: F344/MALE, Route: ORAL, Dose: 0, 150, 300 PPM IN DRINKING WATER, Dose: 0, 150, 300 PPM IN DRINKING WATER, Tumor Site: Type of Lesion: THYROID GLAND: FOLLICULAR CELL ADENOMA, CARCINOMA, LIVER: NEOPLASTIC NODULE",active; positive
O[C@H]1C=Cc2c(ccc3ncccc23)[C@@H]1O,carcinogen call,"Species: MOUSE, Strain/Sex: CD-1/FEMALE, Route: INTRAPERITONEAL, Dose: 0, 5, 10 AND 20 µL OF A 0.05 MOLAR SOLUTION ON DAYS 1, 8 AND 15 OF LIFE RESPECTIVELY (TOTAL DOSE: 1.75 UMOL) (STUDY DURA, Dose: 0, 5, 10 AND 20 µL OF A 0.05 MOLAR SOLUTION ON DAYS 1, 8 AND 15 OF LIFE RESPECTIVELY (TOTAL DOSE: 1.75 UMOL) (STUDY DURA",inactive; negative
same,carcinogen call,"Species: MOUSE, Strain/Sex: CD-1/MALE, Route: INTRAPERITONEAL, Dose: 0, 5, 10 AND 20 µL OF A 0.05 MOLAR SOLUTION ON DAYS 1, 8 AND 15 OF LIFE RESPECTIVELY (TOTAL DOSE: 1.75 UMOL) (STUDY DURA, Dose: 0, 5, 10 AND 20 µL OF A 0.05 MOLAR SOLUTION ON DAYS 1, 8 AND 15 OF LIFE RESPECTIVELY (TOTAL DOSE: 1.75 UMOL) (STUDY DURA",inactive; negative
NCCNc1cccc2ccccc12,carcinogen call,"Species: MOUSE, Strain/Sex: B6C3F1/FEMALE, Route: ORAL, Dose: 0, 0.2, 0.3% OF DIET, TWA FOR HIGH DOSE, Dose: 0, 0.2, 0.3% OF DIET, TWA FOR HIGH DOSE",inactive; negative
same,carcinogen call,"Species: MOUSE, Strain/Sex: B6C3F1/MALE, Route: ORAL, Dose: 0, 0.05, 0.1% OF DIET, Dose: 0, 0.05, 0.1% OF DIET",inactive; negative
same,carcinogen call,"Species: RAT, Strain/Sex: F344/FEMALE, Route: ORAL, Dose: 0, 0.05, 0.1% OF DIET, Dose: 0, 0.05, 0.1% OF DIET",inactive; negative
same,carcinogen call,"Species: RAT, Strain/Sex: F344/MALE, Route: ORAL, Dose: 0, 0.05, 0.1% OF DIET, Dose: 0, 0.05, 0.1% OF DIET",inactive; negative
CC(=O)Nc1nc(-c2ccc([N+](=O)[O-])o2)cs1,carcinogen call,"Species: HAMSTER, Route: ORAL, Tumor Site: Type of Lesion: FORESTOMACH, URINARY BLADDER",active; positive
same,carcinogen call,"Species: MOUSE, Route: ORAL, Tumor Site: Type of Lesion: FORESTOMACH, HEMATOPOIETIC SYSTEM (LEUKEMIA), LYMPHATIC SYSTEM: LYMPHATIC LEUKEMIA, Tumor Site: Type of Lesion: FORESTOMACH, HEMATOPOIETIC SYSTEM (LEUKEMIA), LYMPHATIC SYSTEM: LYMPHATIC LEUKEMIA",active; positive
same,carcinogen call,"Species: RAT, Route: ORAL, Tumor Site: Type of Lesion: MAMMARY GLAND, LUNG, SALIVARY GLAND, Tumor Site: Type of Lesion: MAMMARY GLAND, LUNG, SALIVARY GLAND",active; positive
O=CCCCC=O,carcinogen call,"Species: MOUSE, Strain/Sex: B6C3F1/FEMALE, Route: INHALATION, Dose: 0, 62.5, 125, 250 PPM 6 HR/D 5 D/WK FOR 104 WK (STUDY DURATION: 104 WK), Dose: 0, 62.5, 125, 250 PPM 6 HR/D 5 D/WK FOR 104 WK (STUDY DURATION: 104 WK)",inactive; negative
same,carcinogen call,"Species: MOUSE, Strain/Sex: B6C3F1/FEMALE, Route: INHALATION, Dose: 0, 100 PPB 6 HR/D 5 D/WK FOR 52 OR 78 WK (STUDY DURATION: 78 WK)",inactive; negative
same,carcinogen call,"Species: MOUSE, Strain/Sex: B6C3F1/MALE, Route: INHALATION, Dose: 0, 62.5, 125, 250 PPM 6 HR/D 5 D/WK FOR 104 WK (STUDY DURATION: 104 WK), Dose: 0, 62.5, 125, 250 PPM 6 HR/D 5 D/WK FOR 104 WK (STUDY DURATION: 104 WK)",inactive; negative
same,carcinogen call,"Species: MOUSE, Strain/Sex: B6C3F1/MALE, Route: INHALATION, Dose: 0, 100 PPB 6 HR/D 5 D/WK FOR 52 OR 78 WK (STUDY DURATION: 78 WK)",inactive; negative
same,carcinogen call,"Species: RAT, Strain/Sex: F344/FEMALE, Route: ORAL, Dose: 0, 50, 250, 1000 PPM IN DRINKING WATER FOR 104 WK (STUDY DURATION: 104 WK), Dose: 0, 50, 250, 1000 PPM IN DRINKING WATER FOR 104 WK (STUDY DURATION: 104 WK)",inactive; negative
same,carcinogen call,"Species: RAT, Strain/Sex: F344/MALE, Route: ORAL, Dose: 0, 50, 250, 1000 PPM IN DRINKING WATER FOR 104 WK (STUDY DURATION: 104 WK), Dose: 0, 50, 250, 1000 PPM IN DRINKING WATER FOR 104 WK (STUDY DURATION: 104 WK)",inactive; negative
same,carcinogen call,"Species: RAT, Strain/Sex: F344/N/FEMALE, Route: INHALATION, Dose: 0, 250, 500, 750 PPM 6 HR/D 5 D/WK FOR 104 WK (STUDY DURATION: 104 WK), Dose: 0, 250, 500, 750 PPM 6 HR/D 5 D/WK FOR 104 WK (STUDY DURATION: 104 WK)",inactive; negative
same,carcinogen call,"Species: RAT, Strain/Sex: F344/N/MALE, Route: INHALATION, Dose: 0, 250, 500, 750 PPM 6 HR/D 5 D/WK FOR 104 WK (STUDY DURATION: 104 WK), Dose: 0, 250, 500, 750 PPM 6 HR/D 5 D/WK FOR 104 WK (STUDY DURATION: 104 WK)",inactive; negative
same,carcinogen call,"Species: Rat, Strain/Sex: Fischer 344/Female (80/Group), Route: Oral, Dose: 0, 50, 250, 1000 ppm (0; 5.5; 25.1; 85.9 mg/kg/d) in drinking water for 104 wk, study duration 104 wk, Dose: 0, 50, 250, 1000 ppm (0; 5.5; 25.1; 85.9 mg/kg/d) in drinking water for 104 wk, study duration 104 wk, Tumor Site: Type of Lesion: Large granular lymphocyte leukemia (24, 41, 41, 53/100 animals)",active; positive
same,carcinogen call,"Species: Rat, Strain/Sex: Fischer 344/Male (80/Group), Route: Oral, Dose: 0, 50, 250, 1000 ppm (0; 3.6; 17.1; 63.9 mg/kg/d) in drinking water for 104 wk, study duration 104 wk, Dose: 0, 50, 250, 1000 ppm (0; 3.6; 17.1; 63.9 mg/kg/d) in drinking water for 104 wk, study duration 104 wk",inactive; negative
